From patent publication US20260138976A1 (Hoffmann-La Roche Inc., priority 2022, published 2026)

Legend:
[1] = target: T1, DGKα (hDGKalpha(1-735)-N-His) (Homo sapiens, UniProt P23743); test: In vitro DGK inhibition assay, DGKalpha ADP Glo (in house); format: biochemical; conditions: 4 nM DGKα, 25 μM ATP, 125 uM DLG in liposomes, 1 hour reaction
T1 construct: hDGKalpha(1-735)-N-His; His (N); made in house; host or cells: Sf21 insect cells (baculovirus)
Description: (§1) DGKα and ζ kinases use ATP to phosphorylate the substrate 1,2-dilauroyl-sn-glycerol (DLG, incorporated in the liposomes). ATP is converted to ADP as a result of this enzymatic reaction. After the kinase reaction, an ATP-depletion reagent is added to terminate the kinase reaction and deplete any remaining ATP, leaving only ADP. Second, a detection reagent is added to simultaneously convert ADP to ATP and allow the newly synthesized ATP to be converted to light using a coupled luciferase/luciferin reaction.
(§2) Full length DGKα and ζ were expressed in Sf21 insect cells by infecting the cells with the baculovirus stock at MOI of 2. Purification of both enzymes was performed as previously described by Takahashi et al., PeerJ, 2018 (Takahashi, D.; Sakane, F. Expression and purification of human diacylglycerol 5 kinase alpha from baculovirus-infected insect cells for structural studies. PeerJ2018, 6, No. e5449).
(§3) A concentrated liposome solution was prepared in assay buffer without DTT and BSA: 2 mM of DLG in 21 mM of total liposome (2 mM DLG/8 mM PS/11 mM PC). The reaction mixtures contain the assay buffer with a final DLG concentration of 125 uM ATP concentrations of 25 μM (for DGKA assay) or 50 μM (for DGKZ assay). The reactions were started by addition of DGK α and ζ kinases at 4 nM and 2 nM final concentrations, respectively. After 1 hour reaction, the amount of ADP formed was detected with the ADP-Glo kinase assay (Promega) according to the manufacturer instructions. Compounds were added in 11-points dose response, starting at […], 1:3 dilutions, with a final DMSO concentration of 2%. The multidrop combi was used as a liquid handler and luminescence was read with 0.5 s by the envision reader (PE).

[2] = target: T2, DGKζ (hDGKzeta(1-928)-N-His) (Homo sapiens, UniProt Q13574); test: In vitro DGK inhibition assay, DGKzeta ADP Glo (in house); format: biochemical; conditions: 2 nM DGKζ, 50 μM ATP, 125 uM DLG in liposomes, 1 hour reaction
T2 construct: hDGKzeta(1-928)-N-His; His (N); made in house; host or cells: Sf21 insect cells (baculovirus)
Description: as §1, §2, §3

[3] = target: T3, DGK α kinase (Homo sapiens, UniProt P23743); test: DGKalpha kinase ADP Glo assay run by Reaction Biology Corp.; format: biochemical; conditions: 2 nM kinase, 50 µM ATP, 500 μM DLG, 10-dose duplicate
T3 construct: purchased Reaction Biology Corp. (contract assay service)
Description: (§4) DGK α and ζ kinases use ATP to phosphorylate the substrate 1,2-dilauroyl-sn-glycerol (DLG). ATP is converted to ADP as a result of this enzymatic reaction.
(§5) After the kinase reaction, an ATP-depletion reagent is added to terminate the kinase reaction and deplete any remaining ATP, leaving only ADP. Second, a detection reagent is added to simultaneously convert ADP to ATP and allow the newly synthesized ATP to be converted to light using a coupled luciferase/luciferin reaction.
(§6) DGK α and ζ kinase ADP Glo assays were ran by Reaction Biology Corp., 1 Great Valley Parkway, Suite 2, Malvern, 19355, PA, USA. Information provided by the service provider are the following: DGK α and ζ kinases were used at 2 nM final concentration. Reactions were carried out at 50 µM ATP. 500 μM of the substrate DLG (Dilauroyl-sn-glycerol) was used.

[4] = target: T4, DGK ζ kinase (Homo sapiens, UniProt Q13574); test: DGKzeta kinase ADP Glo assay run by Reaction Biology Corp.; format: biochemical; conditions: 2 nM kinase, 50 µM ATP, 500 μM DLG, 10-dose duplicate
T4 construct: purchased Reaction Biology Corp. (contract assay service)
Description: as §4, §5, §6

[5] = test system: primary human T-cells; test: Proliferation assay (5 days, CellTiter-Glo, CD3-stimulated T-cells); format: cell-based
Method in brief: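 Proliferation read-out: ATP luminescence (CellTiter-Glo 2.0) at day 5 in expanded primary human T-cells on CD3 antibody-coated plates, with PBS-only plates as a counter screen. Compounds in 5–6 pt series (factor 3.333, top 20 or 10 μM final). Values are normalized to DMSO (neutral) and 20 μM reference A1 (100%), from sigmoidal fits.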

T1 sequence (P23743 whole entry): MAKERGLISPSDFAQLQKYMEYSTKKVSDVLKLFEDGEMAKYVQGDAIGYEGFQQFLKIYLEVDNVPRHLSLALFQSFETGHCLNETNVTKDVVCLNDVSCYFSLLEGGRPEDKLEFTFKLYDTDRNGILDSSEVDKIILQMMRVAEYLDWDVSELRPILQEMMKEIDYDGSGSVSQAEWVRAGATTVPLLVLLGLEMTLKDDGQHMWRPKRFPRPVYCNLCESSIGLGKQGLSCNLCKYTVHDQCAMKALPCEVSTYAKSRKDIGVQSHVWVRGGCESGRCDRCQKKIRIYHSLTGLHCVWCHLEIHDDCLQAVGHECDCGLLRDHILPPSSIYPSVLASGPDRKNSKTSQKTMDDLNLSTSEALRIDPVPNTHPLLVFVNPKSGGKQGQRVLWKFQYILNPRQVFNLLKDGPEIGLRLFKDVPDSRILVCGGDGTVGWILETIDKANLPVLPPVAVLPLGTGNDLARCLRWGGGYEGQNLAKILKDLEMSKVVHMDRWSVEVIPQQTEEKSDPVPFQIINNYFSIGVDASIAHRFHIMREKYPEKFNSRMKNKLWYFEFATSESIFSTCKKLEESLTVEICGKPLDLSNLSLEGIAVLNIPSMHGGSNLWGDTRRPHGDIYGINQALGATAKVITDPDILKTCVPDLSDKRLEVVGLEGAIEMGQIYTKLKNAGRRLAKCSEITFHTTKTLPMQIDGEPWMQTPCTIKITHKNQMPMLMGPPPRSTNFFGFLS
T3 sequence (P23743 whole entry): as above
T4 sequence (Q13574 whole entry): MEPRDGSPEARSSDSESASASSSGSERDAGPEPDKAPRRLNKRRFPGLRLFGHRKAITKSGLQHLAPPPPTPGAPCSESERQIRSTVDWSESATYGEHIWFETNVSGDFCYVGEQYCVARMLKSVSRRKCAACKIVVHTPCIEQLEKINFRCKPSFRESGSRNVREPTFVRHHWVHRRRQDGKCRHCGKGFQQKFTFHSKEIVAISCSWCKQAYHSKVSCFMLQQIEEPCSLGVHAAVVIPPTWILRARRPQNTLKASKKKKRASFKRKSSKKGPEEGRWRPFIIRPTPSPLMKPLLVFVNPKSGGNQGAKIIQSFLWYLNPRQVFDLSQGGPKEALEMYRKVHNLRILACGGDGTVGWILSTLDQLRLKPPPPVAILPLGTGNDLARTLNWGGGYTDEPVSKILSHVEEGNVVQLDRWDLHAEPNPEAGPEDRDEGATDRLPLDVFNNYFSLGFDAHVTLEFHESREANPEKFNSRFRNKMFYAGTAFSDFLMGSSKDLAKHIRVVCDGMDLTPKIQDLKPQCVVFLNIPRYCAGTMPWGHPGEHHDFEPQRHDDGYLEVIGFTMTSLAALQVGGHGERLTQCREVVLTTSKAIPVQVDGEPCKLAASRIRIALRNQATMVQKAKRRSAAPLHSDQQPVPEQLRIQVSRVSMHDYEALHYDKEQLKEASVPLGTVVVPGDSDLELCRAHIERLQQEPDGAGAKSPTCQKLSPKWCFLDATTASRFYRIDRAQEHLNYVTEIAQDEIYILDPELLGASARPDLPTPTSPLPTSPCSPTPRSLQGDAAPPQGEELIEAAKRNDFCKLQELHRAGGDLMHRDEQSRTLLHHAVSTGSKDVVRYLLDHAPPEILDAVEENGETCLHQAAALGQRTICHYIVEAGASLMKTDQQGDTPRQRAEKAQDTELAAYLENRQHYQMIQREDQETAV
T2 sequence (Q13574 whole entry): as above

CN1CCCC(F)(c2nnc(-c3ccc4c(c3)N(Cc3ccc(-c5noc(C(F)(F)F)n5)cc3)C(=O)[C@@H](N)CS4(=O)=O)o2)C1 (stereo partly drawn) [Example 49, (3R)-3-amino-7-[5-(3-fluoro-1-methyl-3-piperidyl)-1,3,4-oxadiazol-2-yl]-1,1-dioxo-5-[[4-[5-(trifluoromethyl)-1,2,4-oxadiazol-3-yl]phenyl]methyl]-2,3-dihydro-1λ^6,5-benzothiazepin-4-one]
IC50 [1]: 17800 nM | IC50 [2]: 3100 nM | IC50 [3]: 227 nM | IC50 [4]: 365 nM | Emax proliferation (% activation) ([5]; CD3 condition, normalised to DMSO (neutral) and 20 μM reference compound A1 = 100%): 86 % activation | EC50 ([5]; Homo sapiens, T-cell, 120 h, CD3-stimulated primary human T-cells, 5 days, CellTiter-Glo, fitted sigmoidal curve, read-out: Tcell Proliferation CD3 EC50): 122 nM
